Experimental data published in patent US10272036B2, “Composition for oral delivery of bioactive agents” (priority 2013, dated 2019).

Tests used:
BALB/C mice [1] = test system: BALB/C mice
Excerpt: Experimental Methods: Ten-twelve week old female BALB/C mice are used. Mice are fed ad libitum. Each experimental group is housed in a separate cage.
Three groups of 4 mice are each fed ad libitum as follows: 1) Inventive Warfarin composition, mixed in baits at 4% Warfarin activity, 2) Unencapsulated Warfarin, mixed in baits feed at 4% activity, 3) Bait containing a composition as in Example 3, containing no Warfarin or other bioactive. The feed intake and kill effect on the mice are monitored.

Rodents = conditions: cited from earlier work
BALB/C mice [2] = assay: Oral administration of OVA composition to mice, immune response (ELISA IgG/IgA, ASC); assay type: in vivo; conditions: OVA solution subcutaneously (SC), 0 and 3 weeks, read at week 4, expected
Experimental: Ovalbumin is orally administered to mice to test the efficacy of the inventive compositions in inducing an immune response.
Ovalbumin composition: Ovalbumin (1 mg/g of ovalbumin, Sigma, St. Louis, Mo.,) is incorporated into the inventive composition as described in Example 5. Three groups of 4 mice each are inoculated as follows: 1) ovalbumin (OVA) in the composition, administered orally, 2) OVA solution, administered subcutaneously (SC), 3) antigen free composition administered orally. Mice are inoculated at 0 and 3 weeks. Each dose administers a total 100 mg of dry composition mixed with corn oil at a ratio of 1:2 w/w of dry composition/oil, coated onto feed pellets. At week 4 each mouse is euthanized and serum and spleen cells are harvested.
Immunological assays: Serum is assayed for IgG and IgA by ELISA. ELISA is performed using OVA absorbed to polystyrene plates. Samples are placed in wells in triplicate at a 1:25 dilution for serum. […] Optical density of each well is determined by placing the plate in a microtiter plate spectrophotometer and reading the plate at 490 nm. […]
The OVA specific IgG and IgA antibodies are quantified by determining the increase in optical density over time. […] No OVA specific IgG or IgA antibodies are expected to be detected in mice fed antigen free composition.

[3] = Degradation of unprotected protein antigen (OVA) activity in simulated gastric juice; assay type: physicochemical; conditions: simulated gastric fluid, 0.08% pepsin, pH-2, 37° C.
Experimental: Western Blot: the compositions were lysed with RIPA buffer as described above, and a calculated amount equivalent to 12 μg of protein per sample was loaded on a 10% SDS-polyacrylamide gradient gel (SDS-PAGE, Bio-Rad, Hercules, Calif.). Proteins were transferred onto a PVDF membrane (Bio-Rad) and blocked for 1 h with 5% non-fat milk in PBS containing 0.5% Tween-20 (PBS-T). Blots were incubated with an appropriate primary antibody at 1:5000 dilutions for 1 h at room temperature. After washing with PBS-T (3×10 mL, 5 min. each), the membranes were incubated with an appropriate HRP-conjugated secondary antibody (EMD Millipore Corporation, Billerica, Mass., USA) at 1:5000 dilution for 1 h. After washing with PBS-T (3×10 mL, 5 min. each), chemiluminescent films were developed with an ECL substrate (Amsheram Biosciences).
To evaluate the loss of activity of a protein antigen following a typical gastric exposure, non-encapsulated OVA (10 mg) was incubated in 10 ml simulated gastric fluid containing 0.08% pepsin at pH-2 for 2 h at 37° C. on a shaker. Medium was withdrawn at 15 min, 30 min, 60 min and 120 min incubation times, and the amount of residual OVA was analyzed using Western Blot analysis as described above.

[4] = rodents ingesting baits containing Warfarin

In the case of `CC(=O)CC(c1ccccc1)c1c(O)c2ccccc2oc1=O` (stereo not shown) [Warfarin], the “kill effect on the mice” value (BALB/C mice [1]; after 8 h from feeding, expected) is listed as “all group 2 mice remain alive”, the “feed intake, less than groups 1 and 3” value (BALB/C mice [1]; baits at 4% Warfarin activity, ad libitum) is listed as “over 25%” and the time to recovery (Rodents; rodents after a sublethal amount of Warfarin) is listed as no more than 8 h. For the same molecule, the “time to become unconscious” value (Rodents; [4]) was 1 to 2 h and the “time to obvious symptoms of poisoning” value (Rodents; [4]) was 15 to 30 min.

B1: ovalbumin (protein, UniProt P01012 2-386, looked up)
Ovalbumin: GSIGAASMEFCFDVFKELKVHHANENIFYCPIAIMSALAMVYLGAKDSTRTQINKVVRFDKLPGFGDSIEAQCGTSVNVHSSLRDILNQITKPNDVYSFSLASRLYAEERYPILPEYLQCVKELYRGGLEPINFQTAADQARELINSWVESQTNGIIRNVLQPSSVDSQTAMVLVNAIVFKGLWEKAFKDEDTQAMPFRVTEQESKPVQMMYQIGLFRVASMASEKMKILELPFASGTMSMLVLLPDEVSGLEQLESIINFEKLTEWTSSNVMEERKIKVYLPRMKMEEKYNLTSVLMAMGITDVFSSSANLSGISSAESLKISQAVHAAHAEINEAGREVVGSAEAGVDAASVSEEFRADHPFLFCIKHIATNAVLFFGRCVSP
notes: Ovalbumin, model vaccine / protein antigen, unprotected or as solution
For B1, the “OVA specific serum IgA, IgG and ASC secreting cells” value (BALB/C mice [2]) was “equally increased”, the “Remaining activity (%)” value ([3]; 15 min, relative to pre-exposure activity) was 61% and the “Remaining activity (%)” value ([3]; 30 min) was 55%. The “Remaining activity (%)” value ([3]; 60 min) was 38% and the “Remaining activity (%)” value ([3]; 120 min) was 2%.
